The term IC50 denotes the concentration needed to halve the response being measured. What is called Ki is the dissociation constant of the complex between target and ligand, obtained from inhibition or displacement. One may read the Kd as the equilibrium constant for the complex coming apart.

The source of these data is publication PMC12120022, “Discovery and chemical optimisation of a potent, Bi-cyclic antimicrobial inhibitor of Escherichia coli PBP3” (Communications Biology, 2025).

In test [1] the target is T1, EcPBP3 (Escherichia coli, UniProt P0AD68).
T1 construct: For assays, selections and SPR a construct with residues 60–588 which has the N-terminal domain, but not the transmembrane helix, was used; made in house
T1 sequence (P0AD68 60-588): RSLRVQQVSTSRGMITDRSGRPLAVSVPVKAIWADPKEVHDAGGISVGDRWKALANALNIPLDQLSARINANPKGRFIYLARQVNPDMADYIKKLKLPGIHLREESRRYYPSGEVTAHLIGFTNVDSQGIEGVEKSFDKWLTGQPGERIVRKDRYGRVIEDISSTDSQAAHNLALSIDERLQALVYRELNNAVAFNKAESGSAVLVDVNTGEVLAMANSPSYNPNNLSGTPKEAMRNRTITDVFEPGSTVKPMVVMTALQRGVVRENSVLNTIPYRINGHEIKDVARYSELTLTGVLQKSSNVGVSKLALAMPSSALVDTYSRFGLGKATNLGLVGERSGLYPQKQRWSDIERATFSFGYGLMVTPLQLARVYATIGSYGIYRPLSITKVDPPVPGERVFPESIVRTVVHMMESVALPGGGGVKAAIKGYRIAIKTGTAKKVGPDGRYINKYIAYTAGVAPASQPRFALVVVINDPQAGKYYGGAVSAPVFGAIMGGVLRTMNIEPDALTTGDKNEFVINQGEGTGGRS
The test can be described thus: Fluorescence polarisation competition assay with BOCILLIN-FL as tracer. Format: binding. As to conditions: competition format, NB, non-binder (100 μM top concentration); for IC50: read-out: IC50 (nM) by fluorescence polarisation with Bocillin FL as tracer, Geometric mean (Lower 95% CI of geo. Mean; Upper 95% CI of geo. Mean, n=number of values). On the procedure:
Binding of output peptides to EcPBP3 was evaluated using a fluorescence polarisation (FP) assay.
[…] 10 µL of protein (9.4 nM) was mixed with either 5 µL of peptide or 5 µL of buffer and then the assay was initiated by the addition of 10 µL of tracer (1 nM) (final volume 25 µL), in a black 384 low bind, low volume plate (Corning). The buffer was 10 mM HEPES (Sigma), 2% (v/v) glycerol (Sigma), 300 mM NaCl (Sigma), adjusted to pH 8. The plate was incubated for 1 h at 25 °C and then read in a PHERAstar FS (BMG) using with an “FP 485 520 520” optic module (excitation 485 nm, emission 520 nm). The gain was determined immediately prior to the read on a tracer-only well.
Dotmatics (Dotmatics) workflows performing the above calculations were used to process the data. Values quoted are the geometric means of at least 2 repeats.

For test [2], the target named is T1, EcPBP3. Description: Fluorescence polarisation competition assay with fluorescent Bicycle tracer (tracer 1 / BCY12820). Format: binding. Particulars: protein 9.4 nM sets sensitivity limit, top concentration 5 µM, read-out: Ki (nM) by fluorescence polarisation with tracer 1 (BCY12820 as tracer), Geometric mean (Lower 95% CI; Upper 95% CI, n=number of values). A digest of the protocol: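 Unlabelled peptide competes with fluorescent Bicycle tracer (1 nM, as added) for EcPBP3 (9.4 nM, as added) in 10 mM HEPES, 2% glycerol, 300 mM NaCl, pH 8.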
(In fluorescence polarisation assays a small probe gives low polarisation when free and higher when bound to something large.)

The target in test [3] is T1, EcPBP3. Description: SPR binding assay on immobilised EcPBP3. As to conditions: 37 °C, kinetic fitting; NB = no binding at 2500 nM (Tables S-4, S-5) or 5000 nM (Table 1); read-out: Kd (nM) by SPR (geomean). A digest of the protocol:
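EcPBP3 amine-coupled to CM5 chip (1500-2500 RU); compounds injected at 37 °C in 10 mM HEPES pH 8.0, 200 mM NaCl, 0.05% Tween-20, 2% DMSO, 50 μL min^–1, 150 s contact, 2400 s dissociation. Double-referenced sensorgrams kinetically fitted for Kd; geometric mean of ≥2 biological replicates.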

Structures are written as SMILES. Where a SMILES comes first, the peptide text is derived from it. Some results are limits rather than exact numbers.

Regarding `CC(C)C[C@@H]1NC(=O)CNC(=O)[C@@H]2CCCN2C(=O)[C@H](Cc2ccc(O)cc2)NC(=O)[C@H](C)NC(=O)[C@H](Cc2ccc(O)cc2)NC(=O)[C@@H]2CCCN2C(=O)[C@@H](NC(=O)[C@H](C)N)CSCCC(=O)N2CN3CN(C2)C(=O)CCSC[C@H](NC1=O)C(=O)N[C@@H](CC(C)C)C(=O)N[C@@H](CCC(=O)O)C(=O)N[C@@H](Cc1ccccc1)C(=O)N[C@@H](CCCCN)C(=O)N[C@@H](CO)C(=O)N[C@H](C(=O)N[C@@H](C)C(N)=O)CSCCC3=O` [Peptide 11] (HELM PEPTIDE1{A.C.P.Y.A.Y.P.G.L.C.L.E.F.K.S.C.A.[am]}|CHEM1{[O=C(CC[*:1])N1CN(C(=O)CC[*:2])CN(C(=O)CC[*:3])C1]}$PEPTIDE1,CHEM1,2:R3-1:R1|PEPTIDE1,CHEM1,10:R3-1:R2|PEPTIDE1,CHEM1,16:R3-1:R3$$$V2.0), at EcPBP3 [1], the IC50 is greater than 100000 nM.
`CC(C)C[C@@H]1NC(=O)[C@@H](NC(=O)[C@H](C)N)CSCCC(=O)N2CN3CN(C2)C(=O)CCSC[C@H](NC(=O)[C@H](CC(N)=O)NC(=O)[C@H](CCC(=O)O)NC1=O)C(=O)N[C@@H](Cc1ccc(O)cc1)C(=O)N[C@@H](Cc1ccc(O)cc1)C(=O)N[C@@H](C(C)C)C(=O)N1CCC[C@H]1C(=O)N[C@@H](Cc1ccc(O)cc1)C(=O)N[C@@H](Cc1ccc(O)cc1)C(=O)NCC(=O)N[C@@H](Cc1ccc(O)cc1)C(=O)N[C@@H](C)C(=O)N[C@H](C(=O)N[C@@H](C)C(N)=O)CSCCC3=O` [Peptide 13] (HELM PEPTIDE1{A.C.L.E.N.C.Y.Y.V.P.Y.Y.G.Y.A.C.A.[am]}|CHEM1{[O=C(CC[*:1])N1CN(C(=O)CC[*:2])CN(C(=O)CC[*:3])C1]}$PEPTIDE1,CHEM1,2:R3-1:R1|PEPTIDE1,CHEM1,6:R3-1:R2|PEPTIDE1,CHEM1,16:R3-1:R3$$$V2.0): at EcPBP3 [1], the “IC50 (nM) by fluorescence polarisation with Bocillin FL as tracer, Geometric mean (Lower 95% CI of geo. Mean; Upper 95% CI of geo. Mean, n=number of values)” value is “showed binding to EcPBP3” and the IC50 was found to be 3800 nM.
Consider `CC(C)C[C@@H]1NC(=O)[C@H](C(C)C)NC(=O)[C@H](C(C)C)NC(=O)[C@@H]2CCCN2C(=O)[C@H](CCCNC(=N)N)NC(=O)[C@H](C)NC(=O)[C@@H](NC(=O)[C@H](C)N)CSCCC(=O)N2CN3CN(C2)C(=O)CCSC[C@H](NC1=O)C(=O)N[C@@H](Cc1ccc(O)cc1)C(=O)N[C@@H](Cc1c[nH]c2ccccc12)C(=O)N1CCC[C@H]1C(=O)N[C@@H](CCC(=O)O)C(=O)N[C@@H](CC(=O)O)C(=O)N[C@H](C(=O)N[C@@H](C)C(N)=O)CSCCC3=O` [Peptide 15] (HELM PEPTIDE1{A.C.A.R.P.V.V.L.C.Y.W.P.E.D.C.A.[am]}|CHEM1{[O=C(CC[*:1])N1CN(C(=O)CC[*:2])CN(C(=O)CC[*:3])C1]}$PEPTIDE1,CHEM1,2:R3-1:R1|PEPTIDE1,CHEM1,9:R3-1:R2|PEPTIDE1,CHEM1,15:R3-1:R3$$$V2.0), for which, on EcPBP3 [1], the IC50 is greater than 100000 nM.
Regarding `CC[C@H](C)[C@@H]1NC(=O)[C@H]([C@@H](C)O)NC(=O)[C@H](CC(=O)O)NC(=O)[C@H](C)NC(=O)[C@@H](NC(=O)[C@H](C)N)CSCCC(=O)N2CN3CN(C2)C(=O)CCSC[C@@H](C(=O)N[C@@H](C)C(N)=O)NC(=O)[C@@H]2CCCN2C(=O)[C@H](Cc2ccc(O)cc2)NC(=O)[C@@H]2CCCN2C(=O)[C@H](C(C)C)NC(=O)[C@H](CSCCC3=O)NC(=O)[C@H]([C@@H](C)O)NC(=O)[C@H](CC(C)C)NC(=O)[C@H](CO)NC(=O)[C@H](Cc2ccc(O)cc2)NC1=O` [Peptide 6] (HELM PEPTIDE1{A.C.A.D.T.I.Y.S.L.T.C.V.P.Y.P.C.A.[am]}|CHEM1{[O=C(CC[*:1])N1CN(C(=O)CC[*:2])CN(C(=O)CC[*:3])C1]}$PEPTIDE1,CHEM1,2:R3-1:R1|PEPTIDE1,CHEM1,11:R3-1:R2|PEPTIDE1,CHEM1,16:R3-1:R3$$$V2.0), the IC50 on EcPBP3 [1] was greater than 100000 nM.
As to `CC(C)C[C@@H]1NC(=O)[C@H](C)NC(=O)[C@@H]2CSCCC(=O)N3CN(CN(C3)C(=O)CCSC[C@H](NC(=O)[C@H](C)N)C(=O)N3CCC[C@H]3C(=O)N[C@@H](CCC(=O)O)C(=O)N[C@@H](CCCNC(=N)N)C(=O)N[C@@H](CC(C)C)C(=O)N2)C(=O)CCSC[C@@H](C(=O)N[C@@H](C)C(N)=O)NC(=O)[C@H](CCCNC(=N)N)NC(=O)[C@H](CC(C)C)NC(=O)[C@H]([C@@H](C)O)NC(=O)[C@@H]2CCCN2C(=O)[C@H](CC(C)C)NC(=O)CNC1=O` [Peptide 12] (HELM PEPTIDE1{A.C.P.E.R.L.C.A.L.G.L.P.T.L.R.C.A.[am]}|CHEM1{[O=C(CC[*:1])N1CN(C(=O)CC[*:2])CN(C(=O)CC[*:3])C1]}$PEPTIDE1,CHEM1,2:R3-1:R1|PEPTIDE1,CHEM1,7:R3-1:R2|PEPTIDE1,CHEM1,16:R3-1:R3$$$V2.0), the IC50 at EcPBP3 [1] is greater than 100000 nM.
Still for that read-out and setting: for `CSCC[C@@H]1NC(=O)[C@H](CC(C)C)NC(=O)[C@@H]2CSCCC(=O)N3CN(CN(C3)C(=O)CCSC[C@@H](C(=O)N[C@@H](C)C(N)=O)NC(=O)[C@H](CC(C)C)NC(=O)[C@H](CCC(=O)O)NC(=O)[C@@H]3CCCN3C(=O)[C@H](Cc3ccccc3)NC1=O)C(=O)CCSC[C@H](NC(=O)[C@H](C)N)C(=O)N[C@@H](CCCNC(=N)N)C(=O)NCC(=O)N[C@@H](CCC(=O)O)C(=O)N[C@@H](CO)C(=O)N[C@@H](CO)C(=O)N[C@@H](Cc1ccccc1)C(=O)N2` [Peptide 4] (HELM PEPTIDE1{A.C.R.G.E.S.S.F.C.L.M.F.P.E.L.C.A.[am]}|CHEM1{[O=C(CC[*:1])N1CN(C(=O)CC[*:2])CN(C(=O)CC[*:3])C1]}$PEPTIDE1,CHEM1,2:R3-1:R1|PEPTIDE1,CHEM1,9:R3-1:R2|PEPTIDE1,CHEM1,16:R3-1:R3$$$V2.0) the value was greater than 100000 nM; for `CSCC[C@@H]1NC(=O)[C@H](CC(N)=O)NC(=O)[C@H]([C@@H](C)O)NC(=O)[C@H](Cc2ccccc2)NC(=O)[C@H](CCC(=O)O)NC(=O)[C@H](CC(C)C)NC(=O)[C@@H]2CSCCC(=O)N3CN(CN(C3)C(=O)CCSC[C@@H](C(=O)N[C@@H](C)C(N)=O)NC1=O)C(=O)CCSC[C@H](NC(=O)[C@H](C)N)C(=O)N[C@@H](Cc1ccc(O)cc1)C(=O)N[C@@H](CCCCN)C(=O)N[C@@H](Cc1ccc(O)cc1)C(=O)N1CCC[C@H]1C(=O)NCC(=O)N[C@@H](CC(C)C)C(=O)N2` [Peptide 9] (HELM PEPTIDE1{A.C.Y.K.Y.P.G.L.C.L.E.F.T.N.M.C.A.[am]}|CHEM1{[O=C(CC[*:1])N1CN(C(=O)CC[*:2])CN(C(=O)CC[*:3])C1]}$PEPTIDE1,CHEM1,2:R3-1:R1|PEPTIDE1,CHEM1,9:R3-1:R2|PEPTIDE1,CHEM1,16:R3-1:R3$$$V2.0), greater than 100000 nM; for `CC(C)C[C@@H]1NC(=O)[C@@H]2CCCN2C(=O)[C@H](Cc2ccc(O)cc2)NC(=O)[C@H](C(C)C)NC(=O)[C@H](C(C)C)NC(=O)[C@H](CCC(=O)O)NC(=O)[C@@H](NC(=O)[C@H](C)N)CSCCC(=O)N2CN3CN(C2)C(=O)CCSC[C@H](NC1=O)C(=O)N[C@@H](Cc1ccc(O)cc1)C(=O)N[C@@H](Cc1c[nH]c2ccccc12)C(=O)N[C@@H](CO)C(=O)N[C@@H](CC(=O)O)C(=O)N[C@H](C(=O)N[C@@H](C)C(N)=O)CSCCC3=O` [Peptide 8] (HELM PEPTIDE1{A.C.E.V.V.Y.P.L.C.Y.W.S.D.C.A.[am]}|CHEM1{[O=C(CC[*:1])N1CN(C(=O)CC[*:2])CN(C(=O)CC[*:3])C1]}$PEPTIDE1,CHEM1,2:R3-1:R1|PEPTIDE1,CHEM1,9:R3-1:R2|PEPTIDE1,CHEM1,14:R3-1:R3$$$V2.0), greater than 100000 nM.
On the same count and under the same terms, the result for `CC[C@H](C)[C@@H]1NC(=O)[C@@H](NC(=O)[C@H](C)N)CSCCC(=O)N2CN3CN(C2)C(=O)CCSC[C@H](NC(=O)[C@H](CCCNC(=N)N)NC(=O)[C@H](CCC(=O)O)NC(=O)[C@H](CCCNC(=N)N)NC1=O)C(=O)N[C@@H](Cc1c[nH]c2ccccc12)C(=O)N[C@@H](CC(=O)O)C(=O)N[C@@H](CC(C)C)C(=O)N[C@@H](CCCCN)C(=O)N[C@@H](CCC(=O)O)C(=O)N[C@@H](CC(N)=O)C(=O)N[C@@H](CC(=O)O)C(=O)N[C@@H](Cc1c[nH]c2ccccc12)C(=O)N[C@H](C(=O)N[C@@H](C)C(N)=O)CSCCC3=O` [Peptide 14] (HELM PEPTIDE1{A.C.I.R.E.R.C.W.D.L.K.E.N.D.W.C.A.[am]}|CHEM1{[O=C(CC[*:1])N1CN(C(=O)CC[*:2])CN(C(=O)CC[*:3])C1]}$PEPTIDE1,CHEM1,2:R3-1:R1|PEPTIDE1,CHEM1,7:R3-1:R2|PEPTIDE1,CHEM1,16:R3-1:R3$$$V2.0) reads greater than 100000 nM.
On to `CC(C)[C@@H]1NC(=O)[C@H](Cc2c[nH]c3ccccc23)NC(=O)[C@@H]2CCCN2C(=O)[C@@H]2CSCCC(=O)N3CN(CN(C3)C(=O)CCSC[C@H](NC(=O)[C@H](C)N)C(=O)N[C@@H](CO)C(=O)N[C@@H](Cc3ccccc3)C(=O)N[C@@H](C)C(=O)N[C@@H](CCCCN)C(=O)N2)C(=O)CCSC[C@@H](C(=O)N[C@@H](C)C(N)=O)NC(=O)CNC(=O)[C@H](CCC(=O)O)NC1=O` [Peptide 18], for which the inhibition constant Ki on EcPBP3 [2] was determined as 76.9 nM. In addition, the Kd at EcPBP3 [3] turned out to be 178 nM.
